Results taken from the NIST ThermoML archive (doi:10.1016/j.jct.2013.11.013).
Values joined by “and” are separate entries in the source; they are usually repeats but may differ in a detail not shown here. Equal values may be shown once.

How the values were obtained:
[1] = Crystal; for vapor or sublimation pressure: Calculated from knudsen effusion weight loss; for Normal melting temperature: DTA
[2] = molar enthalpy of vaporization or sublimation; conditions: 298.15 K; Crystal; Static calorimetry
[3] = Molar enthalpy of transition or fusion; conditions: Crystal; DSC

c1ccc2c(c1)Nc1ccccc1S2 [10H-phenothiazine]
[1]
Conditions | vapor or sublimation pressure
357.16 K | 0.0001222 kPa and 0.000127 kPa and 0.0001245 kPa
359.11 K | 0.000157 kPa and 0.0001593 kPa and 0.000151 kPa
361.09 K | 0.0001862 kPa and 0.0001894 kPa
363.16 K | 0.0002302 kPa and 0.0002289 kPa and 0.0002278 kPa
365.1 K | 0.0002854 kPa and 0.0002713 kPa and 0.0002851 kPa
367.08 K | 0.0003408 kPa and 0.0003366 kPa and 0.0003279 kPa
369.16 K | 0.0004206 kPa and 0.0004159 kPa and 0.0004168 kPa
371.1 K | 0.0005122 kPa and 0.000496 kPa and 0.000513 kPa
373.09 K | 0.0006118 kPa and 0.0005996 kPa
375.14 K | 0.0007352 kPa and 0.0007169 kPa and 0.0007525 kPa
377.11 K | 0.0008924 kPa and 0.0008545 kPa and 0.0008994 kPa
379.1 K | 0.0009984 kPa and 0.0009874 kPa and 0.001053 kPa

Conditions | Molar enthalpy of transition or fusion [kcal/mol] | Normal melting temperature [°C] | molar enthalpy [kcal/mol]
[1] | – | 185.70 | –
[2] | – | – | 24.69
[3] | 6.43 | – | –

c1ccc2c(c1)Nc1ccccc1O2 [phenoxazine]
[1]
Conditions | vapor or sublimation pressure
333.18 K | 9.52e-05 kPa and 9.41e-05 kPa and 9.09e-05 kPa
335.2 K | 0.0001178 kPa and 0.000118 kPa and 0.0001119 kPa
337.1 K | 0.0001463 kPa and 0.000143 kPa and 0.0001421 kPa
339.17 K | 0.0001789 kPa and 0.0001744 kPa and 0.0001819 kPa
341.24 K | 0.0002193 kPa and 0.0002141 kPa and 0.0002236 kPa
343.14 K | 0.0002773 kPa and 0.0002712 kPa and 0.0002629 kPa
345.17 K | 0.0003274 kPa and 0.0003216 kPa and 0.0003308 kPa
347.19 K | 0.0004072 kPa and 0.0003893 kPa and 0.0004049 kPa
349.11 K | 0.000488 kPa and 0.0004919 kPa and 0.0004776 kPa
351.17 K | 0.000606 kPa and 0.0005906 kPa and 0.0006233 kPa
353.17 K | 0.0007525 kPa and 0.000734 kPa and 0.0007159 kPa
355.1 K | 0.0008813 kPa and 0.0008967 kPa and 0.0008889 kPa
357.1 K | 0.001069 kPa and 0.001075 kPa and 0.001077 kPa

Conditions | Molar enthalpy of transition or fusion [kcal/mol] | Normal melting temperature [°C] | molar enthalpy [kcal/mol]
[1] | – | 157.58 | –
[2] | – | – | 24.26
[3] | 5.14 | – | –
